According to patent publication US20260234144A1 (TAY THERAPEUTICS LIMITED, priority 2023, published 2026):

Test system: R223X stop codon in the mutated luciferase gene, ADXC8 luciferase reporter cell line
Test: cells
Type: cell-based
Conditions: ADXC8 cells, 24 hours; for Emax / EC (100% of 200 uM G418 response): 24 h; for Emax: read-out: Fold Over Control, maximum fold response relative to 200 μM G418; for EC (100% of 200 uM G418 response): read-out: pC100%, negative logarithm of the concentration giving the same response as 200 μM G418

CNC(=O)CCNc1nc(NC2CCN(C)CC2)nc2nc(C)cc(C)c12 [Example 353]
Emax: 0 to 100% | EC (100% of 200 uM G418 response): > 31.6 µM

COc1ccc(CNc2ccnc3nc(NC4CCN(C)CC4)nc(N)c23)cc1 [Example 298]
Emax: 0 to 100% | EC (100% of 200 uM G418 response): > 100 µM

CNc1nc(N[C@H]2CN(C)C[C@@H]2C)nc2nc(C)cc(C)c12 [Example 381]
Emax: 100 to 3000% | EC (100% of 200 uM G418 response): 1 to 10 µM

Cc1cc(C)c2c(N)nc(NCCN3CC(F)C3)nc2n1 [Example 163]
Emax: 100 to 3000% | EC (100% of 200 uM G418 response): 10 to 100 µM

CNc1nc(N[C@H]2CN(C)C[C@H]2OC)nc2nc(C)cc(C)c12 [Example 369]
Emax: 100 to 3000% | EC (100% of 200 uM G418 response): 1 to 10 µM

Cc1cc(C)c2c(N)nc(NCC3CCNCC3)nc2n1 [Example 141, 5,7-dimethyl-N^2-(piperidin-4-ylmethyl)pyrido[2,3-d]pyrimidine-2,4-diamine]
Emax: 100 to 3000% | EC (100% of 200 uM G418 response): 10 to 100 µM

Cc1cc(C)c2c(N)nc(NCCCN(C)C)nc2n1 [Example 154]
EC (100% of 200 uM G418 response): 1 to 10 µM

Cc1cc(C)c2c(N)nc(N[C@H]3CCCN(Cc4ccccc4)C3)nc2n1 [Example 215]
Emax: 100 to 3000% | EC (100% of 200 uM G418 response): 1 to 10 µM

CNc1nc(N[C@H]2CNC[C@@H]2OC)nc2nc3c(c(C)c12)CCC3 [Example 623]
EC (100% of 200 uM G418 response): 0.1 to 1 µM

Cc1c2c(nc3nc(NC4CCN(Cc5ccc(C#N)cc5)CC4)nc(NCCO)c13)CCC2 [Example 555]
Emax: 100 to 3000% | EC (100% of 200 uM G418 response): 0.1 to 1 µM

Cc1cc(C)c2c(N)nc(NC3CCN(Cc4nnc[nH]4)CC3)nc2n1 [Example 483]
Emax: 0 to 100% | EC (100% of 200 uM G418 response): > 31.6 µM

CN1CCC(Nc2nc(N)c3ccc(N(C)C)nc3n2)CC1 [Example 36, N^7,N^7-dimethyl-N^2-(1-methylpiperidin-4-yl)pyrido[2,3-d]pyrimidine-2,4,7-triamine]
Emax: 100 to 3000% | EC (100% of 200 uM G418 response): 10 to 100 µM

CN1CCC(Nc2nc(N)c3cc(-c4ncco4)cnc3n2)CC1 [Example 645]
Emax: 0 to 100% | EC (100% of 200 uM G418 response): > 100 µM

Cc1cc(C)c2c(NC3CCC3)nc(NC3CCN(C)CC3)nc2n1 [Example 321]
Emax: 0 to 100% | EC (100% of 200 uM G418 response): > 31.6 µM

CNc1nc(NC2CCNCC2)nc2nc(C)c3c(c12)CCC3 [Example 552]
EC (100% of 200 uM G418 response): 0.1 to 1 µM

CNc1nc(N[C@H]2C[C@@H](C)N(C)C2)nc2nc(C)cc(C)c12 [Example 371]
Emax: 100 to 3000% | EC (100% of 200 uM G418 response): 10 to 100 µM

CN1CCC(Nc2nc(N)c3cc(-c4cncs4)cnc3n2)CC1 [Example 647]
Emax: 100 to 3000% | EC (100% of 200 uM G418 response): 10 to 100 µM

CN1CCC(Nc2nc(N)c3ccc(-c4ccc(Cl)cc4)nc3n2)CC1 [Example 96]
EC (100% of 200 uM G418 response): 10 to 100 µM

COc1cccc(CN2CCC(Nc3nc(N)c4c(C)cc(C)nc4n3)CC2)c1 [Example 494]
Emax: 100 to 3000% | EC (100% of 200 uM G418 response): 1 to 10 µM

CNc1nc(N[C@H]2CN(C)CC[C@@H]2O)nc2nc(C)cc(C)c12 [Example 609]
EC (100% of 200 uM G418 response): 1 to 10 µM

Cc1nc2nc(NC3CCN(C)CC3)nc(N)c2c(-c2ccccc2)c1Cl [Example 271]
Emax: 0 to 100% | EC (100% of 200 uM G418 response): > 31.6 µM

CN1CCC(Nc2cc(N)c3cccnc3n2)CC1 [Example 43, N^2-(1-methylpiperidin-4-yl)-1,8-naphthyridine-2,4-diamine]
Emax: 100 to 3000% | EC (100% of 200 uM G418 response): 10 to 100 µM

Cc1cc(C)c2c(N)nc(NC[C@@H]3CN(C(=O)OC(C)(C)C)CCO3)nc2n1 [Example 136]
Emax: 0 to 100% | EC (100% of 200 uM G418 response): > 100 µM

Cc1cc(C)c2c(N)nc(NC3CCN(Cc4cscn4)CC3)nc2n1 [Example 461]
Emax: 100 to 3000% | EC (100% of 200 uM G418 response): 1 to 10 µM

Nc1nc(NCCCN2CCOCC2)nc2nc(-c3ccccc3)c3c(c12)CCC3 [Example 129, N^3-(3-morpholinopropyl)-6-phenyl-8,9-dihydro-7H-cyclopenta[4,5]pyrido[2,3-d]pyrimidine-1,3-diamine]
EC (100% of 200 uM G418 response): 1 to 10 µM

Cc1cc(C)c2c(NCCC(=O)N(C)C)nc(NC3CCN(C)CC3)nc2n1 [Example 354]
Emax: 0 to 100% | EC (100% of 200 uM G418 response): > 31.6 µM

Cc1cc(C)c2c(N)nc(N[C@@H]3CCCC[C@H]3N(C)C)nc2n1 [Example 181]
Emax: 0 to 100% | EC (100% of 200 uM G418 response): > 31.6 µM

CNc1nc(N[C@H]2CN[C@H](CF)C2)nc2nc(C)cc(C)c12 [Example 413]
EC (100% of 200 uM G418 response): 0.1 to 1 µM

Cc1nc2nc(NCCCN3CCOCC3)nc(N)c2c2c1CCC2 [Example 46, 6-methyl-N^3-(3-morpholinopropyl)-8,9-dihydro-7H-cyclopenta[4,5]pyrido[2,3-d]pyrimidine-1,3-diamine]
EC (100% of 200 uM G418 response): 0.1 to 1 µM

Cc1nc2nc(NC3CCN(C)CC3)nc(N)c2c(C)c1Cl [Example 130, 6-chloro-5,7-dimethyl-N^2-(1-methylpiperidin-4-yl)pyrido[2,3-d]pyrimidine-2,4-diamine]
Emax: 100 to 3000% | EC (100% of 200 uM G418 response): 1 to 10 µM

COCc1ccc(-c2ccc3c(N)nc(NC4CCN(C)CC4)nc3n2)cc1 [Example 78]
Emax: 100 to 3000% | EC (100% of 200 uM G418 response): 1 to 10 µM

Cc1cc(C)c2c(NCC(N)=O)nc(NC3CCN(C)CC3)nc2n1 [Example 314]
Emax: 0 to 100% | EC (100% of 200 uM G418 response): > 31.6 µM

CC(=O)Nc1cnccc1CN1CCC(Nc2nc(N)c3c(C)cc(C)nc3n2)CC1 [Example 560]
Emax: 100 to 3000% | EC (100% of 200 uM G418 response): 1 to 10 µM

CN1CCC(Nc2nc(N)c3ccc(-c4ccc(F)cc4F)nc3n2)CC1 [Example 85]
EC (100% of 200 uM G418 response): 1 to 10 µM

Cc1cc(C)c2c(N)nc(NC3C[C@H]4CC[C@@H](C3)N4C)nc2n1 (some centres unmarked) [Example 218]
Emax: 100 to 3000% | EC (100% of 200 uM G418 response): 1 to 10 µM

Cc1cc(C)c2c(N)nc(NC3CN(C)C3)nc2n1 [Example 153]
Emax: 0 to 100% | EC (100% of 200 uM G418 response): > 31.6 µM

Cc1cc(C)c2c(N)nc(NC3CCN(CC4CCC4)CC3)nc2n1 [Example 454]
Emax: 100 to 3000% | EC (100% of 200 uM G418 response): 1 to 10 µM

CN1CCC(Nc2nc(N)c3ccc(-c4ccc(C(=O)N(C)C)cc4)nc3n2)CC1 [Example 71]
Emax: 0 to 100% | EC (100% of 200 uM G418 response): > 100 µM

CNc1nc(N[C@H]2CN(C)C[C@@H]2O)nc2nc(C)c(Cl)c(C)c12 [Example 629]
EC (100% of 200 uM G418 response): 1 to 10 µM

CNc1nc(N[C@]2(C)CCN(C)C2)nc2nc(C)cc(C)c12 [Example 388]
Emax: 0 to 100% | EC (100% of 200 uM G418 response): > 31.6 µM

Cc1cc(C)c2c(N)nc(NC3CCN(Cc4ccc(C#N)cc4O)CC3)nc2n1 [Example 567]
Emax: 100 to 3000% | EC (100% of 200 uM G418 response): 0.1 to 1 µM

CNc1nc(NC2CNCC2C(F)F)nc2nc(C)cc(C)c12 (single isomer, unassigned) [Example 429]
pC100% (negative logarithm of the concentration giving the same response as 200 μM G418): +++ (pC100% > 6.0 ≤ 7.0)

Cc1cc(C)c2c(N)nc(NCCCN3CCCCC3C)nc2n1 (centres unmarked) [Example 150]
Emax: 100 to 3000% | EC (100% of 200 uM G418 response): 1 to 10 µM

Cc1c2c(nc3nc(NC4CCN(Cc5ccn[nH]5)CC4)nc(N)c13)CCC2 [Example 662]
Emax: 100 to 3000% | EC (100% of 200 uM G418 response): 1 to 10 µM

CNc1nc(N[C@@H]2CN[C@H](C)C2)nc2nc(C)cc(C)c12 [Example 372]
Emax: 100 to 3000% | EC (100% of 200 uM G418 response): 10 to 100 µM

CNc1nc(N[C@H]2CN(C)C[C@@H]2F)nc2nc(C)cc(C)c12 [Example 339]
Emax: 100 to 3000% | EC (100% of 200 uM G418 response): 1 to 10 µM

Cc1cc(C)c2c(N)nc(NCC3(N(C)C)CCOCC3)nc2n1 [Example 156]
EC (100% of 200 uM G418 response): 1 to 10 µM

Cc1cccc(CN2CCC(Nc3nc(N)c4c(C)cc(C)nc4n3)CC2)c1 [Example 549]
Emax: 100 to 3000% | EC (100% of 200 uM G418 response): 1 to 10 µM

CN1CCC(Nc2nc(N)c3c(C#N)ccnc3n2)CC1 [Example 250, 4-amino-2-((1-methylpiperidin-4-yl)amino)pyrido[2,3-d]pyrimidine-5-carbonitrile]
Emax: 0 to 100% | EC (100% of 200 uM G418 response): > 100 µM

CN1CCC(Nc2nc(N)c3ccc(-c4cncnc4)nc3n2)CC1 [Example 98]
Emax: 0 to 100% | EC (100% of 200 uM G418 response): > 100 µM

Cc1cc(C)c2c(N)nc(NCC3CCN(C(=O)OC(C)(C)C)CC3)nc2n1 [Example 133]
Emax: 0 to 100% | EC (100% of 200 uM G418 response): > 100 µM

Cc1cc(C)c2c(N)nc(NCCCNCC(F)F)nc2n1 [Example 193]
Emax: 100 to 3000% | EC (100% of 200 uM G418 response): 10 to 100 µM

COc1ccc2c(N)nc(NC3CCN(C)CC3)nc2n1 [Example 17, 7-methoxy-N^2-(1-methylpiperidin-4-yl)pyrido[2,3-d]pyrimidine-2,4-diamine]
Emax: 100 to 3000% | EC (100% of 200 uM G418 response): 10 to 100 µM

Cc1c2c(nc3nc(NC4CCN(Cc5cccc(C(=O)O)c5)CC4)nc(N)c13)CCC2 [Example 674]
Emax: 0 to 100% | EC (100% of 200 uM G418 response): > 31.6 µM

Cc1cc(C)c2c(N)nc(NCCN3CC(C(F)(F)F)C3)nc2n1 [Example 166]
Emax: 100 to 3000% | EC (100% of 200 uM G418 response): 10 to 100 µM

CNc1nc(N[C@@H]2CCCN(Cc3ccccc3)C2)nc2nc(C)cc(C)c12 [Example 399]
Emax: 100 to 3000% | EC (100% of 200 uM G418 response): 1 to 10 µM

CN1CCC(Nc2nc(N)c3cc(C#N)cnc3n2)CC1 [Example 277]
Emax: 0 to 100% | EC (100% of 200 uM G418 response): > 31.6 µM

COCC1CN(CCNc2nc(N)c3c(C)cc(C)nc3n2)C1 [Example 164]
Emax: 0 to 100% | EC (100% of 200 uM G418 response): > 31.6 µM

Cc1cc(C)c2c(N)nc(NC3CCN(Cc4ccc(S(C)(=O)=O)cc4)CC3)nc2n1 [Example 497]
Emax: 100 to 3000% | EC (100% of 200 uM G418 response): 10 to 100 µM

COCCN1CC[C@@H](Nc2nc(N)c3c(C)cc(C)nc3n2)C1 [Example 223, (R)—N^2-(1-(2-methoxyethyl)pyrrolidin-3-yl)-5,7-dimethylpyrido[2,3-d]pyrimidine-2,4-diamine]
Emax: 100 to 3000% | EC (100% of 200 uM G418 response): 10 to 100 µM

CN1CCC(Nc2nc(N)c3c(O)ccnc3n2)CC1 [Example 244, 4-amino-2-((1-methylpiperidin-4-yl)amino)pyrido[2,3-d]pyrimidin-5-ol]
Emax: 0 to 100% | EC (100% of 200 uM G418 response): > 100 µM
